Reference: ChEMBL document CHEMBL4359931, “Synthesis, biological evaluation and molecular docking studies of new amides of 4-bromothiocolchicine as anticancer agents” (Bioorg Med Chem, 2019)
Activity calls are given as the source filed them. The rule behind the calls is not given here.

What was measured:
Homo sapiens [1] = organism: Homo sapiens; assay: Induction of apoptosis in human ALL5 cells assessed as increase in 85 kDa PARP expression at 0.2 uM incubated for 24 and 48 hrs by immunoblot analysis; assay type: functional, cell-based
MCF7 [2] = assay: Cell cycle arrest in human MCF7 cells assessed as accumulation in G2 phase at 5 times of antiproliferative IC50 incubated for 48 hrs by propidium iodide based flow cytometry (reference value: 16 %); assay type: functional
MCF7 [3] = assay: Cell cycle arrest in human MCF7 cells assessed as accumulation in S phase at 5 times of antiproliferative IC50 incubated for 48 hrs by propidium iodide based flow cytometry (reference value: 34 %); assay type: functional
[4] = Cell cycle arrest in human ALL5 cells assessed as accumulation in subG1 phase at 5 times of antiproliferative IC50 incubated for 72 hrs by propidium iodide based flow cytometry (reference value: 15.5 %); assay type: functional
[5] = Cell cycle arrest in human ALL5 cells assessed as accumulation in S phase at 5 times of antiproliferative IC50 incubated for 72 hrs by propidium iodide based flow cytometry (reference value: 13.5 %); assay type: functional
MCF7 [6] = assay: Cell cycle arrest in human MCF7 cells assessed as accumulation in G2 phase at 5 times of antiproliferative IC50 incubated for 24 hrs by propidium iodide based flow cytometry (reference value: 22.4 %); assay type: functional
Homo sapiens [7] = organism: Homo sapiens; assay: Induction of apoptosis in human ALL5 cells assessed as reduction in 116 kDa PARP expression at 0.2 uM incubated for 24 and 48 hrs by immunoblot analysis; assay type: functional, cell-based
[8] = Cell cycle arrest in human ALL5 cells assessed as accumulation in G2 phase at 5 times of antiproliferative IC50 incubated for 24 hrs by propidium iodide based flow cytometry (reference value: 10.6 %); assay type: functional
[9] = Cell cycle arrest in human ALL5 cells assessed as accumulation in subG1 phase at 5 times of antiproliferative IC50 incubated for 24 hrs by propidium iodide based flow cytometry (reference value: 10.5 %); assay type: functional
MCF7 [10] = assay: Cell cycle arrest in human MCF7 cells assessed as accumulation in G1 phase at 5 times of antiproliferative IC50 incubated for 48 hrs by propidium iodide based flow cytometry (reference value: 40.8 %); assay type: functional
[11] = Cell cycle arrest in human ALL5 cells assessed as accumulation in G2 phase at 5 times of antiproliferative IC50 incubated for 48 hrs by propidium iodide based flow cytometry (reference value: 11.2 %); assay type: functional
MCF7 [12] = assay: Cell cycle arrest in human MCF7 cells assessed as accumulation in S phase at 5 times of antiproliferative IC50 incubated for 24 hrs by propidium iodide based flow cytometry (reference value: 19.9 %); assay type: functional
BALB/3T3 = assay: Antiproliferative activity against mouse BALB/3T3 cells assessed as reduction in cell viability incubated for 120 hrs by MTT assay; assay type: cell-based; settings: BALB/3T3, 120 h
MCF7 [13] = assay: Cell cycle arrest in human MCF7 cells assessed as accumulation in S phase at 5 times of antiproliferative IC50 incubated for 72 hrs by propidium iodide based flow cytometry (reference value: 19.8 %); assay type: functional
[14] = Antiproliferative activity against human ALL5 cells assessed as reduction in cell viability incubated for 120 hrs by MTT assay; assay type: functional, cell-based; settings: ALL5, 120 h
MCF7 [15] = assay: Cell cycle arrest in human MCF7 cells assessed as accumulation in G2 phase at 5 times of antiproliferative IC50 incubated for 72 hrs by propidium iodide based flow cytometry (reference value: 18.6 %); assay type: functional
MCF7 [16] = assay: Cell cycle arrest in human MCF7 cells assessed as accumulation in subG1 phase at 5 times of antiproliferative IC50 incubated for 48 hrs by propidium iodide based flow cytometry (reference value: 9.19 %); assay type: functional
[17] = Cell cycle arrest in human ALL5 cells assessed as accumulation in G1 phase at 5 times of antiproliferative IC50 incubated for 48 hrs by propidium iodide based flow cytometry (reference value: 67.4 %); assay type: functional
[18] = Cell cycle arrest in human ALL5 cells assessed as accumulation in G2 phase at 5 times of antiproliferative IC50 incubated for 72 hrs by propidium iodide based flow cytometry (reference value: 11.3 %); assay type: functional
[19] = Cell cycle arrest in human ALL5 cells assessed as accumulation in G1 phase at 5 times of antiproliferative IC50 incubated for 24 hrs by propidium iodide based flow cytometry (reference value: 68.1 %); assay type: functional
[20] = Cell cycle arrest in human ALL5 cells assessed as accumulation in S phase at 5 times of antiproliferative IC50 incubated for 48 hrs by propidium iodide based flow cytometry (reference value: 10.3 %); assay type: functional
MCF7 [21] = assay: Cell cycle arrest in human MCF7 cells assessed as accumulation in subG1 phase at 5 times of antiproliferative IC50 incubated for 72 hrs by propidium iodide based flow cytometry (reference value: 3.59 %); assay type: functional
[22] = Cell cycle arrest in human ALL5 cells assessed as accumulation in G1 phase at 5 times of antiproliferative IC50 incubated for 72 hrs by propidium iodide based flow cytometry (reference value: 59.7 %); assay type: functional
MCF7 [23] = assay: Cell cycle arrest in human MCF7 cells assessed as accumulation in G1 phase at 5 times of antiproliferative IC50 incubated for 24 hrs by propidium iodide based flow cytometry (reference value: 49.9 %); assay type: functional
MCF7 [24] = assay: Cell cycle arrest in human MCF7 cells assessed as accumulation in G1 phase at 5 times of antiproliferative IC50 incubated for 72 hrs by propidium iodide based flow cytometry (reference value: 58 %); assay type: functional
MCF7 [25] = assay: Cell cycle arrest in human MCF7 cells assessed as accumulation in subG1 phase at 5 times of antiproliferative IC50 incubated for 24 hrs by propidium iodide based flow cytometry (reference value: 7.79 %); assay type: functional
[26] = Cell cycle arrest in human ALL5 cells assessed as accumulation in S phase at 5 times of antiproliferative IC50 incubated for 24 hrs by propidium iodide based flow cytometry (reference value: […]); assay type: functional
A549 = assay: Antiproliferative activity against human A549 cells assessed as reduction in cell viability incubated for 120 hrs by MTT assay; assay type: functional, cell-based; settings: A549, 120 h
[27] = Cell cycle arrest in human ALL5 cells assessed as accumulation in subG1 phase at 5 times of antiproliferative IC50 incubated for 48 hrs by propidium iodide based flow cytometry (reference value: 11 %); assay type: functional
[28] = Selectivity index, ratio of IC50 of mouse BALB/3T3 cells to IC50 of human LoVo/DX cells; assay type: toxicity; settings: BALB/3T3 cells versus LoVo/DX cells, read-out: Ratio IC50
LoVo = assay: Antiproliferative activity against human LoVo cells assessed as reduction in cell viability incubated for 120 hrs by MTT assay; assay type: functional, cell-based
[29] = Selectivity index, ratio of IC50 of mouse BALB/3T3 cells to IC50 of human LoVo cells; assay type: toxicity; settings: BALB/3T3 cells versus LoVo cells, read-out: Ratio IC50
Homo sapiens [30] = organism: Homo sapiens; assay: Induction of cell death in human ALL5 cells assessed as decrease in 4 N DNA at 5 times of antiproliferative IC50 incubated for 72 hrs by propidium iodide based flow cytometry; assay type: functional
[31] = Antiproliferative activity against human LoVo/DX cells assessed as reduction in cell viability incubated for 120 hrs by MTT assay; assay type: functional, cell-based
[32] = Selectivity index, ratio of IC50 of mouse BALB/3T3 cells to IC50 of human MCF7 cells; assay type: toxicity; settings: BALB/3T3 cells versus MCF7 cells, read-out: Ratio IC50
Homo sapiens [33] = organism: Homo sapiens; assay: Induction of cell cycle arrest in human ALL5 cells assessed as increase in 4 N DNA at 5 times of antiproliferative IC50 incubated for 48 hrs by propidium iodide based flow cytometry; assay type: functional
[34] = Resistance index, ratio of IC50 of human LoVo/DX cells to IC50 of human LoVo cells; assay type: functional
[35] = Selectivity index, ratio of IC50 of mouse BALB/3T3 cells to IC50 of human ALL5 cells
Homo sapiens [36] = organism: Homo sapiens; assay: Induction of cell cycle arrest in human ALL5 cells assessed as increase in 4 N DNA at 5 times of antiproliferative IC50 incubated for 24 hrs by propidium iodide based flow cytometry; assay type: functional
MCF7 [37] = assay: Antiproliferative activity against human MCF7 cells assessed as reduction in cell viability incubated for 120 hrs by MTT assay; assay type: functional, cell-based; settings: MCF7, 120 h
[38] = Selectivity index, ratio of IC50 of mouse BALB/3T3 cells to IC50 of human A549 cells

Structure (SMILES) | Activity (MCF7 [2]) | Activity (MCF7 [3]) | Activity [4] | Activity [5] | Activity (MCF7 [6]) | Activity [8] | Activity [9] | Activity (MCF7 [10]) | Activity [11] | Activity (MCF7 [12]) | IC50 (BALB/3T3) | Activity (MCF7 [13]) | IC50 [14] | Activity (MCF7 [15]) | Activity (MCF7 [16]) | Activity [17] | Activity [18] | Activity [19] | Activity [20] | Activity (MCF7 [21]) | also measured
COc1cccc2c1C(=O)c1c(O)c3c(c(O)c1C2=O)C[C@@](O)(C(=O)CO)C[C@@H]3O[C@H]1C[C@H](N)[C@H](O)[C@H](C)O1 [DOXORUBICIN] | 32.4% | 18.3% | 36.6% | 16.9% | 30.5% | 22% | 1.55% | 43.3% | 5.52% | 16.9% | 166 nM | 14.1% | 39.1 nM | 32.5% | 6.08% | 67.6% | 9.99% | 66.3% | 2.77% | 18.3% | Activity (Homo sapiens [1]): Active; Activity (Homo sapiens [7]): Active; Activity [22]: 36.5%; Activity (MCF7 [23]): 47.3%; Activity (MCF7 [24]): 35.1%; Activity (MCF7 [25]): 5.28%; Activity [26]: 7.16%; IC50 (A549): 258 nM; Activity [27]: 21%
CCC(=O)N[C@H]1CCc2c(Br)c(OC)c(OC)c(OC)c2-c2ccc(SC)c(=O)cc21 | 63.7% | 8.78% | 45.8% | 19.5% | 74.3% | 17.2% | 17.4% | 15% | 17.5% | 7.61% | 11.2 nM | 16.3% | 8.5 nM | 53.8% | 12.5% | 35% | 8.93% | 52.4% | 14.5% | 17.7% | selectivity ratio [28]: 0.1; IC50 (LoVo): 7.2 nM; selectivity ratio [29]: 1.6; Activity (Homo sapiens [30]): Active; IC50 [31]: 87.2 nM; selectivity ratio [32]: 1; Activity (Homo sapiens [33]): Active; Ratio IC50 [34]: 12.1; Ratio IC50 [35]: 1.3; Activity (Homo sapiens [36]): Active; IC50 (MCF7 [37]): 11.2 nM; Ratio IC50 [38]: 1.1; Activity [22]: 25.7%; Activity (MCF7 [23]): 12%; Activity (MCF7 [24]): 12.2%; Activity (MCF7 [25]): 6.15%; Activity [26]: 12.9%; IC50 (A549): 10.5 nM; Activity [27]: 33%
